# Measurements from patent publication US10376520B2, “Methods for the treatment of cardiovascular disorders” (Galapagos NV, priority 2015, dated 2019).
# Tested on: RA patients
# Test: [HDL] determination, Study 1 (RA patients, add-on to MTX)
# Type: in vivo, human
# Method: Double-blind, placebo-controlled add on study in subjects with moderately to severely active RA who have an inadequate response to methotrexate (MTX) (oral or parenteral).
# 595 subjects randomized to one of 6 dose regimens of Compound 1 (dosed as a [Compound 1:HCl:3H2O]) (3 dose levels administered either once or twice daily) or placebo on top of each subject's stable dose of MTX.
# Compound 1 (dosed as a [Compound 1:HCl:3H2O]) is dosed for twelve weeks once daily (q.d.) (50 mg, 100 mg or 200 mg) or twice daily (b.i.d.) (25 mg, 50 mg or 100 mg); or placebo.
# At Week 12, the subjects on placebo who have not achieved 20% improvement in swollen joint count (SJC66) and tender joint count (TJC68) are re-randomized automatically to receive Compound 1 (dosed as a [Compound 1:HCl:3H2O]) either at 100 mg q.d. or 50 mg b.i.d. doses in a blinded fashion; subjects on 50 mg q.d. who have not achieved 20% improvement in SJC66 and TJC68 will be assigned to 100 mg q.d. and subjects on 25 mg b.i.d. that have not achieved a 20% improvement in SJC66 and TJC68 will be assigned to 50 mg b.i.d. Subjects who switch treatment at week 12 are handled as if they discontinued at week 12 for the purpose of statistical analysis, whereas subjects in the other groups will maintain their randomized treatment until Week 24.
# This assay relies on a homogeneous enzymatic colorimetric test. In the presence of magnesium ions, dextran sulfate selectively forms water-soluble complexes with LDL, VLDL and chylomicrons which are resistant to PEG-modified enzymes.
# The cholesterol concentration of [HDL]-cholesterol is determined enzymatically by cholesterol esterase and cholesterol oxidase coupled with PEG to the amino groups (approx. 40%).
# In the presence of peroxidase, the hydrogen peroxide generated reacts with 4-amino-antipyrine and Sodium N-(2-hydroxy-3-sulfopropyl)-3,5-dimethoxyaniline (HSDA) to form a purple-blue dye. The color intensity of this dye is directly proportional to the cholesterol concentration and is measured photometrically.
# Human serum and plasma samples [HDL] determination was done on a Roche/Hitachi Cobas c 701/702 system which automatically calculate the analyte concentration of each sample. Samples containing precipitates are centrifuged before performing the assay.
# [1] = continued 50 mg q.d. (N = 63), week 4
# [2] = continued 50 mg q.d. (N = 63), week 8
# [3] = continued 50 mg q.d. (N = 63), week 12
# [4] = continued 50 mg q.d. (N = 63), week 16
# [5] = continued 50 mg q.d. (N = 63), week 20
# [6] = continued 50 mg q.d. (N = 63), week 24
# [7] = continued 100 mg b.i.d. (N = 84), week 1
# [8] = continued 100 mg b.i.d. (N = 84), week 2
# [9] = continued 100 mg b.i.d. (N = 84), week 4
# [10] = continued 100 mg b.i.d. (N = 84), week 8
# [11] = continued 100 mg b.i.d. (N = 84), week 12
# [12] = continued 100 mg b.i.d. (N = 84), week 16
# [13] = continued 100 mg b.i.d. (N = 84), week 20
# [14] = continued 100 mg b.i.d. (N = 84), week 24
# [15] = continued 100 mg q.d. (N = 85), week 1
# [16] = continued 100 mg q.d. (N = 85), week 2
# [17] = continued 100 mg q.d. (N = 85), week 4
# [18] = continued 100 mg q.d. (N = 85), week 8
# [19] = continued 100 mg q.d. (N = 85), week 12
# [20] = continued 100 mg q.d. (N = 85), week 16
# [21] = continued 100 mg q.d. (N = 85), week 20
# [22] = continued 100 mg q.d. (N = 85), week 24
# [23] = continued 200 mg q.d. (N = 86), week 1
# [24] = continued 200 mg q.d. (N = 86), week 2
smiles,measurement,setting,value
"O=C(Nc1nc2cccc(-c3ccc(CN4CCS(=O)(=O)CC4)cc3)n2n1)C1CC1 [Compound 1, cyclopropanecarboxylic acid {5-[4-(1,1-dioxo-thiomorpholin-4-ylmethyl)-phenyl]-[1,2,4]triazolo[1,5-a]pyridin-2yl}-amide]",[HDL] Mean percentage CFB - 24 weeks results,[1],4.87%
same,[HDL] Median CFB - 24 weeks results,[1],0.05 mmol/L
same,[HDL] Mean CFB - 24 weeks results,[2],0.06 mmol/L
same,[HDL] Mean percentage CFB - 24 weeks results,[2],5.57%
same,[HDL] Median CFB - 24 weeks results,[2],0.10 mmol/L
same,[HDL] Mean CFB - 24 weeks results,[3],0.08 mmol/L
same,[HDL] Mean percentage CFB - 24 weeks results,[3],7.86%
same,[HDL] Median CFB - 24 weeks results,[3],0.06 mmol/L
same,[HDL] Mean CFB - 24 weeks results,[4],0.08 mmol/L
same,[HDL] Mean percentage CFB - 24 weeks results,[4],6.63%
same,[HDL] Median CFB - 24 weeks results,[4],0.10 mmol/L
same,[HDL] Mean CFB - 24 weeks results,[5],0.10 mmol/L
same,[HDL] Mean percentage CFB - 24 weeks results,[5],8.81%
same,[HDL] Median CFB - 24 weeks results,[5],0.10 mmol/L
same,[HDL] Mean CFB - 24 weeks results,[6],0.17 mmol/L
same,[HDL] Mean percentage CFB - 24 weeks results,[6],14.22%
same,[HDL] Median CFB - 24 weeks results,[6],0.15 mmol/L
same,[HDL] Mean CFB - 24 weeks results,[7],0.12 mmol/L
same,[HDL] Mean percentage CFB - 24 weeks results,[7],9.40%
same,[HDL] Median CFB - 24 weeks results,[7],0.10 mmol/L
same,[HDL] Mean CFB - 24 weeks results,[8],0.20 mmol/L
same,[HDL] Mean percentage CFB - 24 weeks results,[8],15.20%
same,[HDL] Median CFB - 24 weeks results,[8],0.18 mmol/L
same,[HDL] Mean CFB - 24 weeks results,[9],0.25 mmol/L
same,[HDL] Mean percentage CFB - 24 weeks results,[9],19.54%
same,[HDL] Median CFB - 24 weeks results,[9],0.25 mmol/L
same,[HDL] Mean CFB - 24 weeks results,[10],0.26 mmol/L
same,[HDL] Mean percentage CFB - 24 weeks results,[10],21.15%
same,[HDL] Median CFB - 24 weeks results,[10],0.25 mmol/L
same,[HDL] Mean CFB - 24 weeks results,[11],0.30 mmol/L
same,[HDL] Mean percentage CFB - 24 weeks results,[11],23.14%
same,[HDL] Median CFB - 24 weeks results,[11],0.25 mmol/L
same,[HDL] Mean CFB - 24 weeks results,[12],0.27 mmol/L
same,[HDL] Mean percentage CFB - 24 weeks results,[12],21.09%
same,[HDL] Median CFB - 24 weeks results,[12],0.28 mmol/L
same,[HDL] Mean CFB - 24 weeks results,[13],0.28 mmol/L
same,[HDL] Mean percentage CFB - 24 weeks results,[13],21.88%
same,[HDL] Median CFB - 24 weeks results,[13],0.29 mmol/L
same,[HDL] Mean CFB - 24 weeks results,[14],0.29 mmol/L
same,[HDL] Mean percentage CFB - 24 weeks results,[14],22.68%
same,[HDL] Median CFB - 24 weeks results,[14],0.30 mmol/L
same,[HDL] Mean CFB - 24 weeks results,[15],0.05 mmol/L
same,[HDL] Mean percentage CFB - 24 weeks results,[15],5.43%
same,[HDL] Median CFB - 24 weeks results,[15],0.06 mmol/L
same,[HDL] Mean CFB - 24 weeks results,[16],0.07 mmol/L
same,[HDL] Mean percentage CFB - 24 weeks results,[16],7.02%
same,[HDL] Median CFB - 24 weeks results,[16],0.07 mmol/L
same,[HDL] Mean CFB - 24 weeks results,[17],0.11 mmol/L
same,[HDL] Mean percentage CFB - 24 weeks results,[17],9.40%
same,[HDL] Median CFB - 24 weeks results,[17],0.13 mmol/L
same,[HDL] Mean CFB - 24 weeks results,[18],0.09 mmol/L
same,[HDL] Mean percentage CFB - 24 weeks results,[18],8.18%
same,[HDL] Median CFB - 24 weeks results,[18],0.11 mmol/L
same,[HDL] Mean CFB - 24 weeks results,[19],0.10 mmol/L
same,[HDL] Mean percentage CFB - 24 weeks results,[19],8.49%
same,[HDL] Median CFB - 24 weeks results,[19],0.10 mmol/L
same,[HDL] Mean CFB - 24 weeks results,[20],0.09 mmol/L
same,[HDL] Mean percentage CFB - 24 weeks results,[20],7.94%
same,[HDL] Median CFB - 24 weeks results,[20],0.10 mmol/L
same,[HDL] Mean CFB - 24 weeks results,[21],0.15 mmol/L
same,[HDL] Mean percentage CFB - 24 weeks results,[21],12.24%
same,[HDL] Median CFB - 24 weeks results,[21],0.14 mmol/L
same,[HDL] Mean CFB - 24 weeks results,[22],0.15 mmol/L
same,[HDL] Mean percentage CFB - 24 weeks results,[22],12.17%
same,[HDL] Median CFB - 24 weeks results,[22],0.15 mmol/L
same,[HDL] Mean CFB - 24 weeks results,[23],0.11 mmol/L
same,[HDL] Mean percentage CFB - 24 weeks results,[23],9.42%
same,[HDL] Median CFB - 24 weeks results,[23],0.13 mmol/L
same,[HDL] Mean CFB - 24 weeks results,[24],0.20 mmol/L
same,[HDL] Mean percentage CFB - 24 weeks results,[24],16.66%
same,[HDL] Median CFB - 24 weeks results,[24],0.20 mmol/L
same,[HDL] Mean CFB - 24 weeks results,"continued 200 mg q.d. (N = 86), week 4",0.24 mmol/L
